The record followed here is patent US20090012103A1, “SUBSTITUTED HETEROCYCLIC COMPOUNDS” (priority 2007, published 2009).

In data set [1] the target is T1, wild-type human cardiac sodium channel, hNav1.5 (Homo sapiens, UniProt Q14524). Kind of data set: Late INa screening assay (late sodium current, PatchXpress whole cell patch clamp). Type of data set: cell-based. The settings on record: compound at 10 μM; read-out: Late INa % blk. (In general: The patch-clamp technique gives a direct electrical read-out from membranes.)

Data set [2] has as its target T1, wild-type human cardiac sodium channel, hNav1.5. Kind of data set: Peak INa screening assay (tonic block TB and use-dependent block UDB of peak sodium current). Type of data set: cell-based. The settings on record: compound at 10 μM. The protocol: The late sodium current (Late INa) and peak sodium current (Peak INa) assays are performed on an automated electrophysiology platform, PatchXpress 7000A (MDS Analytical Technologies, Sunnyvale, Calif.), which uses the whole cell patch clamp technique to measure currents through the cell membrane of up to 16 cells at a time. The assay uses an HEK293 (human embryonic kidney) cell line heterologously expressing the wild-type human cardiac sodium channel, hNav1.5, purchased from Millipore (Billerica, Mass.). No beta subunits were coexpressed with the Na channel alpha subunit. […] Experiments are carried out at 24-27° C.
For both the Late INa and Peak INa assays, series resistance compensation is set to 50% and whole-cell compensation is performed automatically. […] Currents through open sodium channels are automatically recorded and stored in the DataXpress2 database (MDS Analytical Technologies, Sunnyvale, Calif.). Analysis is performed using DataXpress2 analysis software and data are compiled in Excel.
Compound stocks are routinely made in glass vials to 10 mM in dimethyl sulfoxide (DMSO). In some cases, when compounds are not soluble in DMSO, they are made in 100% ethanol. Stocks are sonicated as necessary. The extracellular solution for screening Late INa is composed of: 140 mM NaCl, 4 mM KCl, 1.8 mM CaCl2, 0.75 mM MgCl2, and 5 mM HEPES with pH adjusted to 7.4 using NaOH. The extracellular solution for screening Peak INa is composed of: 20 mM NaCl, 120 mM N-methyl-D glucamine, 4 mM KCl, 1.8 mM CaCl2, 0.75 mM MgCl2, and 5 mM HEPES with pH adjusted to 7.4 using HCl. The intracellular solution used to perfuse the inside of the cells for both the Late INa and Peak INa assays contains: 120 mM CsF, 20 mM CsCl, 5 mM EGTA, 5 mM HEPES and pH adjusted to 7.4 with CsOH. Compounds are diluted in extracellular solution to 10 μM in glass vials and then transferred to glass well plates before robotic addition to the cells. The 0 Na extracellular solution used at the end of each experiment for the Late INa and Peak INa assays to measure baseline current contains: 140 mM N-methyl-D-glucamine; 4 mM KCl; 1.8 mM CaCl2; 0.75 mM MgCl2; 5 mM HEPES and pH was adjusted to 7.4 with HCl.
Compounds were also evaluated for their effect in several other assays, including their effect on Peak INa. In some cases, the effect on Peak INa was measured using data from the Late INa assay. […] Since the peak INa can be very large, introducing artifacts in the recording, the concentration of Na^+ in the bath is reduced to 20 mM and a nonpermeant cation is added to compensate for the Na^+ that was omitted from the standard extracellular solution (see above). The peak INa assay uses a holding potential of −100 mV and a 20 ms test pulse to 0 mV to activate the channel. As in the Late INa assay, stepping the voltage to 0 mV causes a rapid increase in negative Na current through hNav1.5 that inactivates within a few ms. No late INa activator is added for the peak assay.
For the separate peak INa assay, both tonic (TB) block and use-dependent (UDB) block of peak inward sodium current by 10 μM compound are determined. TB is block of the channel in the resting state, before the channel opens. TB is simulated in this assay by stimulating the channel to open at a low frequency (0.1 Hz). This is done in order to measure the control current amplitude and monitor current rundown, enabling correction for rundown in the calculation of percent block for TB.

The next data set has as its target hERG potassium channel (Homo sapiens, UniProt Q12809). The experiment in a line: hERG screening assay (PatchXpress patch clamp, CHO cell line). For orientation: Block of hERG is tested as a sign of cardiac risk.
[3] abbreviates: tonic block, read-out: Tonic Peak INa % blk.
The mark [4] stands for this setting: use-dependent block, read-out: UDB Peak INa % blk.

Chain of hERG potassium channel (Q12809 whole entry): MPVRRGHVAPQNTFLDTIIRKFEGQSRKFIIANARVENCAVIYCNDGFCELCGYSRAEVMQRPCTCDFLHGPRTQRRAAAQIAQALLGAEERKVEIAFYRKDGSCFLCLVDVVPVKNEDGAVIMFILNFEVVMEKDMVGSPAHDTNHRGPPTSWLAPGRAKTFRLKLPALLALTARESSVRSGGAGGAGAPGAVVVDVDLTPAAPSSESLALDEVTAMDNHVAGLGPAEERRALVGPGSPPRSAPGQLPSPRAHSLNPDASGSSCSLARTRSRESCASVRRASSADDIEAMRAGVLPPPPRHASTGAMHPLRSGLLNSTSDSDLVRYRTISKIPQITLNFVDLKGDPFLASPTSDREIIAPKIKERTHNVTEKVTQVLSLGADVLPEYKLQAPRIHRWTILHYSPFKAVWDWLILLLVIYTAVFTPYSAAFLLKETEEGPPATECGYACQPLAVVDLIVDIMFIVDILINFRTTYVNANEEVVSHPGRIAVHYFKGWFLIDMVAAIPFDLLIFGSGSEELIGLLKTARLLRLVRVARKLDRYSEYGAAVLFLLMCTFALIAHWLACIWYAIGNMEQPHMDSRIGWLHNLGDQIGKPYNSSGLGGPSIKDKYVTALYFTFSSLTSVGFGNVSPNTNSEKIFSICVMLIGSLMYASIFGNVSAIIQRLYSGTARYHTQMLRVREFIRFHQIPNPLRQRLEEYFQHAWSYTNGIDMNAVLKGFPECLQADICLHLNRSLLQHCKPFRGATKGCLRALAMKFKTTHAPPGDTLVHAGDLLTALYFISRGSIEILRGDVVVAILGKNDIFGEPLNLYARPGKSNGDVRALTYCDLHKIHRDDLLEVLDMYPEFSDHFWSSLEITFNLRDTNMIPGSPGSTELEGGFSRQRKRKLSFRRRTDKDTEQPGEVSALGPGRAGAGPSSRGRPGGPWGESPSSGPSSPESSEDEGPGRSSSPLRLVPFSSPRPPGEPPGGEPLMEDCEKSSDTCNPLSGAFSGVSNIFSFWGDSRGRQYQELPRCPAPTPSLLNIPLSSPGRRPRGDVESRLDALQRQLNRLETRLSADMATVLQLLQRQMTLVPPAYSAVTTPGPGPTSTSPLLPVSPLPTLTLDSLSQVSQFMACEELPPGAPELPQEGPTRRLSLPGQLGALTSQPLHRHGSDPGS
T1 sequence (Q14524 whole entry): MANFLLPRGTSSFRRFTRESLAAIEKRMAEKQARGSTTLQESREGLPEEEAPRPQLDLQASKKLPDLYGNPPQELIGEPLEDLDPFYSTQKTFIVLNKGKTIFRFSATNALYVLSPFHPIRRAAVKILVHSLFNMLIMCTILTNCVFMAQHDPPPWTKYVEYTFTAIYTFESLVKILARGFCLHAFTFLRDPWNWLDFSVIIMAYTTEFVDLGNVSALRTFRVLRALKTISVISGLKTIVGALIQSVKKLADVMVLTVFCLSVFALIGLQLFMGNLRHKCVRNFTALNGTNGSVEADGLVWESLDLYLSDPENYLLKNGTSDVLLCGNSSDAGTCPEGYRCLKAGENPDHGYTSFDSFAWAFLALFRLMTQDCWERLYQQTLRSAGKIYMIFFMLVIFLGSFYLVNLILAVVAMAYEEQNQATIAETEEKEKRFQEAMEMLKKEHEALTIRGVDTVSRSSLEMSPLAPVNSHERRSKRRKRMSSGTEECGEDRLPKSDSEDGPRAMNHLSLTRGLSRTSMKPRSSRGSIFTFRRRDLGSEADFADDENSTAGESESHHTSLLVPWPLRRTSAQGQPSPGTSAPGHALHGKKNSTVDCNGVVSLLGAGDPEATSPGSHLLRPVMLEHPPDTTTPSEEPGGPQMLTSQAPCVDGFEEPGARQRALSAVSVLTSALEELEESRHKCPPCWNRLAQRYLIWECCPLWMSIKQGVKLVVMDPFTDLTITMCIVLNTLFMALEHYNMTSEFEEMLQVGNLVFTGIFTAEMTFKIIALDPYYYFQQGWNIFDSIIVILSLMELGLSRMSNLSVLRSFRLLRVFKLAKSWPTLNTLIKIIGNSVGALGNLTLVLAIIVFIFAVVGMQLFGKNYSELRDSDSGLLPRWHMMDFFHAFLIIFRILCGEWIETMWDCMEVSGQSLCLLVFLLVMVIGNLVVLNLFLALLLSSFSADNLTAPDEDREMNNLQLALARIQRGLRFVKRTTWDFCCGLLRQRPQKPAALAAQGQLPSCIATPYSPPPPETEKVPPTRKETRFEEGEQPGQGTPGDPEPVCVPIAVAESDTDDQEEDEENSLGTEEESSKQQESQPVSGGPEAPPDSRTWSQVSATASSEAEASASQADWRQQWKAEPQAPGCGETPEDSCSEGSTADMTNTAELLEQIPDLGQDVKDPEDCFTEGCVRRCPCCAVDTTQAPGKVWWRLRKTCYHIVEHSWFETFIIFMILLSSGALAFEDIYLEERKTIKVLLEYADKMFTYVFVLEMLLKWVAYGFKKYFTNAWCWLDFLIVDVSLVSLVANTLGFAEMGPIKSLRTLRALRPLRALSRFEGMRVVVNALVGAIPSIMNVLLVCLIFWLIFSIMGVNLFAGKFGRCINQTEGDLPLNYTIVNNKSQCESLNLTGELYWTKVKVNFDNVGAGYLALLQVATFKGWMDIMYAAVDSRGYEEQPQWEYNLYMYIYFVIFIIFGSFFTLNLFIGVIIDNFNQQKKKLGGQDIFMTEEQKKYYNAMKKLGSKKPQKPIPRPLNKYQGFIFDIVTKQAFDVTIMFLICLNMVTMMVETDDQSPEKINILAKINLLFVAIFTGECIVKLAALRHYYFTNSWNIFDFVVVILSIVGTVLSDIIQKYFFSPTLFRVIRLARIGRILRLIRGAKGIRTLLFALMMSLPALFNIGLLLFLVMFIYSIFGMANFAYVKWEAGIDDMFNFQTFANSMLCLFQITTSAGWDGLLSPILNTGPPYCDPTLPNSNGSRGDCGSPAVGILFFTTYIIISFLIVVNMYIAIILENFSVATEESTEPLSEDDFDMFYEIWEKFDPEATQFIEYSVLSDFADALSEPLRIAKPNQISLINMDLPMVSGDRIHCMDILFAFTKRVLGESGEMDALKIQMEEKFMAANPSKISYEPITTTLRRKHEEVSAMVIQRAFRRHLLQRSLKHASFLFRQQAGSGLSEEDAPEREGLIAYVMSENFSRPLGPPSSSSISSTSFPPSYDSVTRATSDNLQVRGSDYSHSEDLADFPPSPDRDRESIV

`N#CC1=C(N)OC2=C(C(=O)CCC2)C1c1ccsc1` (stereo not drawn) [PT-100, 2-amino-5-oxo-4-(thiophen-3-yl)-5,6,7,8-tetrahydro-4H-chromene-3-carbonitrile]: the inhibition at 10 µM in data set [1] was -12.1%; in data set [2] (setting [3]), 4%. For the same molecule, the results for the “hERG Patch Clamp hERG % blk” value on hERG potassium channel (1 μM) and on hERG potassium channel (10 μM) were 10.0% and 16.5%, respectively.
For the molecule `COc1cc(Cl)ccc1COC(=O)C1=C(C)Nc2nnnn2C1c1c(Cl)cccc1Cl` (stereo not drawn) [PT-306, 4-chloro-2-methoxybenzyl 7-(2,6-dichlorophenyl)-5-methyl-4,7-dihydrotetrazolo[1,5-a]pyrimidine-6-carboxylate], the inhibition at 10 µM in data set [1] is 70.4%; in data set [2] (setting [3]), 20.1%; in data set [2] (setting [4]), 9%. In addition, the results for the “hERG Patch Clamp hERG % blk” value at hERG potassium channel (1 μM) and on hERG potassium channel (10 μM) were 10.0% and 48.5%, respectively.
On to `C=CCOC(=O)C1=C(C)Nc2nnnn2C1c1cccc2ccccc12` (stereo not drawn) [PT-319, allyl 5-methyl-7-(naphthalen-1-yl)-4,7-dihydrotetrazolo[1,5-a]pyrimidine-6-carboxylate], for which the inhibition at 10 µM in data set [1] came to 55.7%; in data set [2] (setting [3]), 4.5%. Also, the “hERG Patch Clamp hERG % blk” value at hERG potassium channel (1 μM) stood at 10.0%; on hERG potassium channel (10 μM), 41.0%.
Regarding `COc1ccc(C2C(C(=O)OCc3ccccc3)=C(C)Nc3nnnn32)c(C#N)c1` (stereo not drawn) [PT-389, benzyl 7-(2-cyano-4-methoxyphenyl)-5-methyl-4,7-dihydrotetrazolo[1,5-a]pyrimidine-6-carboxylate], the inhibition at 10 µM in data set [1] was 49.7%; in data set [2] (setting [3]) it was -1.6%. Moreover, the “hERG Patch Clamp hERG % blk” value on hERG potassium channel (1 μM) turned out to be 23.5%; on hERG potassium channel (10 μM), 69.0%.
As to `CC1=C(C(=O)OCc2ccccc2)C(c2cccc3ccccc23)n2nnnc2N1C` (stereo not drawn) [PT-195, benzyl 4,5-dimethyl-7-(naphthalen-1-yl)-4,7-dihydrotetrazolo[1,5-a]pyrimidine-6-carboxylate], the inhibition at 10 µM in data set [1] came out at 52.7%; in data set [2] (setting [3]), 1.7%. Also, the “hERG Patch Clamp hERG % blk” value was 12.5% on hERG potassium channel (1 μM) and 49.0% on hERG potassium channel (10 μM).
Taken in the same sequence, the figures for `CC1=C(C(=O)OCc2ccccc2)C(c2cc3ccccc3o2)n2nnnc2N1` (stereo not drawn) [PT-045, benzyl 7-(benzofuran-2-yl)-5-methyl-4,7-dihydrotetrazolo[1,5-a]pyrimidine-6-carboxylate] were 92%, 23.8%, 10.0% and 70.0%.
With `CCOC(=O)C1=C(C)NC(C)=C(C(=O)OCC)C1c1ccc2c(c1)OCCO2` [PT-109, diethyl 4-(2,3-dihydrobenzo[b][1,4]dioxin-6-yl)-2,6-dimethyl-1,4-dihydropyridine-3,5-dicarboxylate], the inhibition at 10 µM in data set [2] (setting [3]) came out at 18.1%. Besides, the “hERG Patch Clamp hERG % blk” value amounted to 16.0% at hERG potassium channel (1 μM) and 34.2% on hERG potassium channel (10 μM).
As to `CC1=C(C(=O)O[C@@H](C)c2ccccc2)C(c2sc3ccccc3c2C)n2nccc2N1` (stereo partly drawn) [PT-244, (S)-1-phenylethyl 5-methyl-7-(3-methylbenzo[b]thiophen-2-yl)-4,7-dihydropyrazolo[1,5-a]pyrimidine-6-carboxylate], the results for the inhibition at 10 µM in data set [1], in data set [2] (setting [3]) and in data set [2] (setting [4]) were 68.7%, 66.2% and 44%, respectively.
Turning to `COc1cc([N+](=O)[O-])ccc1C1C(C(=O)OCc2ccccc2)=C(C)Nc2ccnn21` (stereo not drawn) [PT-394, benzyl 7-(2-methoxy-4-nitrophenyl)-5-methyl-4,7-dihydropyrazolo[1,5-a]pyrimidine-6-carboxylate], the values for the inhibition at 10 µM in data set [1], in data set [2] (setting [3]) and in data set [2] (setting [4]) were 45.2%, 15.4% and 8%, respectively.
With `CC1=C(c2nnc(Cc3ccccc3)o2)C(c2cccc3ccccc23)C2=C(CCCC2=O)N1` (stereo not drawn) [PT-276, 3-(5-benzyl-1,3,4-oxadiazol-2-yl)-2-methyl-4-(naphthalen-1-yl)-4,6,7,8-tetrahydroquinolin-5(1H)-one], the values for the inhibition at 10 µM in data set [1], in data set [2] (setting [3]) and in data set [2] (setting [4]) were 49.7%, 31.3% and 13%, respectively.
In the same order, the values of `CCOC(=O)C1=C(C)Nc2nnnn2C1c1sccc1-c1cccc(F)c1` (stereo not drawn) [PT-496, ethyl 7-(3-(3-fluorophenyl)thiophen-2-yl)-5-methyl-4,7-dihydrotetrazolo[1,5-a]pyrimidine-6-carboxylate] are 84.2%, 36.8% and 9.1%.
For `N#CC1=C(N)OC2=C(C(=O)CC(c3ccccc3)C2)C1c1ccsc1` (stereo not drawn) [PT-102, 2-amino-5-oxo-7-phenyl-4-(thiophen-3-yl)-5,6,7,8-tetrahydro-4H-chromene-3-carbonitrile], the inhibition at 10 µM in data set [1] was found to be 44.9%; in data set [2] (setting [3]), 2.7%.
As to `COc1ccccc1COC(=O)C1=C(C)Nc2nnnn2C1c1c(C)cccc1C` (stereo not drawn) [PT-262, 2-methoxybenzyl 7-(2,6-dimethylphenyl)-5-methyl-4,7-dihydrotetrazolo[1,5-a]pyrimidine-6-carboxylate], the values for the inhibition at 10 µM in data set [1], in data set [2] (setting [3]) and in data set [2] (setting [4]) were 70%, 15.1% and 6.9%, respectively.
In the same order, the values of `CC1=C(C(=O)OCc2ccccc2)C(c2ccc3ccccc3c2)C2=C(CCCC2=O)N1` (stereo not drawn) [PT-320, benzyl 2-methyl-4-(naphthalen-2-yl)-5-oxo-1,4,5,6,7,8-hexahydroquinoline-3-carboxylate] are 51%, 16.7% and 26.5%.
As to `COC(=O)C1=C(C)Nc2nnnn2C1c1c(Br)sc2ccccc12` (stereo not drawn) [PT-518, methyl 7-(2-bromobenzo[b]thiophen-3-yl)-5-methyl-4,7-dihydrotetrazolo[1,5-a]pyrimidine-6-carboxylate], the inhibition at 10 µM in data set [1] was determined as 71.2%; in data set [2] (setting [3]) it was 24%.
Taken in the same sequence, the figures for `CCOC(=O)C1=C(C)NC(C)=C(C(=O)OCC)C1c1ccsc1` [PT-110, diethyl 2,6-dimethyl-4-(thiophen-3-yl)-1,4-dihydropyridine-3,5-dicarboxylate] were 41.8% and 0%.
For `COc1ccc(-c2sc3ccccc3c2C2C(C(=O)OCc3ccccc3)=C(C)Nc3nnnn32)cc1` (stereo not drawn) [PT-379, benzyl 7-(2-(4-methoxyphenyl)benzo[b]thiophen-3-yl)-5-methyl-4,7-dihydrotetrazolo[1,5-a]pyrimidine-6-carboxylate], the inhibition at 10 µM was found to be 55% in data set [1], 11.1% in data set [2] (setting [3]) and 9.8% in data set [2] (setting [4]).
With `CC1=C(C(=O)OCc2ccccc2)C(c2sccc2Br)n2nnnc2N1` (stereo not drawn) [PT-401, benzyl 7-(3-bromothiophen-2-yl)-5-methyl-4,7-dihydrotetrazolo[1,5-a]pyrimidine-6-carboxylate], the values for the inhibition at 10 µM in data set [1] and in data set [2] (setting [3]) were 77.3% and 25.9%, respectively.
In the case of `CC1=C(C(=O)OCC2CC2)C(c2c(Br)sc3ccccc23)n2nnnc2N1` (stereo not drawn) [PT-426, cyclopropylmethyl 7-(2-bromobenzo[b]thiophen-3-yl)-5-methyl-4,7-dihydrotetrazolo[1,5-a]pyrimidine-6-carboxylate], the inhibition at 10 µM in data set [1] worked out at 81%; in data set [2] (setting [3]), 60.1%; in data set [2] (setting [4]), 50.7%.
